{"source": "patent US10815274B2", "about": "“Immunogenic WT-1 peptides and methods of use thereof” (Memorial Sloan Kettering Cancer Center, priority 2012, dated 2020)", "key": {"[1]": {"tested_on": "WT1+ allo APC with restricting HLA allele loaded with WT1 peptide", "test": "Cr51 release assay, cytotoxic CTL response vs peptide loaded allogeneic APC sharing restricting HLA allele (HLA restriction)", "settings": "50:1 E:T"}, "WT1- autologous APC": {"tested_on": "WT1- autologous APC", "test": "Cr51 release assay, cytotoxic CTL response vs unmodified autologous APC", "format": "cell-based, human", "settings": "50:1 E:T"}, "[2]": {"tested_on": "WT1- allo APC with restricting HLA allele", "test": "Cr51 release assay, cytotoxic CTL response vs unloaded allogeneic APC sharing restricting HLA allele", "format": "cell-based, human", "settings": "50:1 E:T"}, "[3]": {"tested_on": "WT1 peptide loaded autologous APC", "test": "Cr51 release assay, cytotoxic CTL response vs peptide loaded autologous APC", "format": "cell-based, human", "settings": "50:1 E:T"}, "WT1+ leukemia": {"tested_on": "WT1+ leukemia", "test": "Cr51 release assay, cytotoxic CTL response vs WT1+ leukemia expressing restricting HLA allele", "format": "cell-based, human", "settings": "HLA allele A0201; 50:1 E:T", "excerpt": "(§1) Twenty-four primary leukemic cells and 1 leukemic cell line were characterized for their expression of WT1 by intracellular FACS staining using murine anti-human WT1 monoclonal antibodies (Neomarkers, Fremont, Calif.) as previously described (32,38) The WT1+ leukemias included blast cells from 11 primary AMLs, 3 primary ALLs and 1B-cell precursor ALL cell line. Ten WT1-leukemias, were used as controls, and included 3 B-cell precursor ALLs and 7 AMLs.\nPHA blasts were not available from every patient that provided leukemia blasts for this study."}, "WT1- leukemia": {"tested_on": "WT1- leukemia", "test": "Cr51 release assay, cytotoxic CTL response vs WT1- leukemia", "format": "cell-based, human", "settings": "HLA allele A0201; 50:1 E:T", "excerpt": "as §1"}}, "note": "Where a SMILES comes first, the peptide text is derived from it."}
{"smiles": "CC(C)C[C@H](NC(=O)[C@H](CO)NC(=O)[C@@H]1CCCN1C(=O)[C@@H]1CCCN1C(=O)[C@H](Cc1ccccc1)NC(=O)[C@@H](N)Cc1c[nH]cn1)C(=O)N1CCC[C@H]1C(=O)N1CCC[C@H]1C(=O)N[C@H](C(=O)O)[C@@H](C)O", "note": "[SEQ ID NO: 145] (H-HFPPSLPPT-OH; N-terminus and C-terminus assumed)", "values": [{"measurement": "Cytotoxic CTL response, % vs WT1+ allo APC with restricting HLA allele loaded with WT1 peptide", "setting": "[1]; HLA allele A3101", "value": 27, "unit": "%"}, {"measurement": "Cytotoxic CTL response, % vs WT1- autologous APC", "setting": "WT1- autologous APC; HLA allele A3101", "value": 0, "unit": "%"}, {"measurement": "Cytotoxic CTL response, % vs WT1- allo APC with restricting HLA allele", "setting": "[2]; HLA allele A3101", "value": 0, "unit": "%"}, {"measurement": "Cytotoxic CTL response, % vs WT1 peptide loaded autologous APC", "setting": "[3]; HLA allele A3101", "value": 42, "unit": "%"}]}
{"smiles": "CC[C@H](C)[C@H](NC(=O)[C@H](C)N)C(=O)N[C@@H](CC(C)C)C(=O)N[C@@H](CC(=O)O)C(=O)N[C@@H](Cc1ccccc1)C(=O)N[C@@H](CC(C)C)C(=O)N[C@@H](CC(C)C)C(=O)N[C@@H](CC(C)C)C(=O)N[C@@H](CCC(N)=O)C(=O)O", "note": "[SEQ ID NO: 147] (H-AILDFLLLQ-OH; N-terminus and C-terminus assumed)", "values": [{"measurement": "Cytotoxic CTL response, % vs WT1+ allo APC with restricting HLA allele loaded with WT1 peptide", "setting": "[1]; HLA allele A0201", "value": 17, "unit": "%"}, {"measurement": "Cytotoxic CTL response, % vs WT1- autologous APC", "setting": "WT1- autologous APC; HLA allele A0201", "value": 0, "unit": "%"}, {"measurement": "Cytotoxic CTL response, % vs WT1+ leukemia", "setting": "WT1+ leukemia", "value": 19, "unit": "%"}, {"measurement": "Cytotoxic CTL response, % vs WT1- allo APC with restricting HLA allele", "setting": "[2]; HLA allele A0201", "value": 3, "unit": "%"}, {"measurement": "Cytotoxic CTL response, % vs WT1- leukemia", "setting": "WT1- leukemia", "value": 3, "unit": "%"}, {"measurement": "Cytotoxic CTL response, % vs WT1 peptide loaded autologous APC", "setting": "[3]; HLA allele A0201", "value": 18, "unit": "%"}]}
{"smiles": "CC(C)C[C@H](NC(=O)[C@H](CS)NC(=O)CNC(=O)[C@@H]1CCCN1)C(=O)N[C@@H](CCC(N)=O)C(=O)N[C@@H](CCC(N)=O)C(=O)N1CCC[C@H]1C(=O)N[C@@H](CCC(=O)O)C(=O)N[C@@H](CCC(N)=O)C(=O)O", "note": "[SEQ ID NO: 148] (H-PGCLQQPEQ-OH; N-terminus and C-terminus assumed)", "values": [{"measurement": "Cytotoxic CTL response, % vs WT1+ allo APC with restricting HLA allele loaded with WT1 peptide", "setting": "[1]; HLA allele A0201", "value": 27, "unit": "%"}, {"measurement": "Cytotoxic CTL response, % vs WT1+ allo APC with restricting HLA allele loaded with WT1 peptide", "setting": "[1]; HLA allele B4701", "value": 25, "unit": "%"}, {"measurement": "Cytotoxic CTL response, % vs WT1- autologous APC", "setting": "WT1- autologous APC; HLA allele A0201", "value": 6, "unit": "%"}, {"measurement": "Cytotoxic CTL response, % vs WT1- autologous APC", "setting": "WT1- autologous APC; HLA allele B4701", "value": 6, "unit": "%"}, {"measurement": "Cytotoxic CTL response, % vs WT1+ leukemia", "setting": "WT1+ leukemia", "value": 19, "unit": "%"}, {"measurement": "Cytotoxic CTL response, % vs WT1- allo APC with restricting HLA allele", "setting": "[2]; HLA allele A0201", "value": 7, "unit": "%"}, {"measurement": "Cytotoxic CTL response, % vs WT1- allo APC with restricting HLA allele", "setting": "[2]; HLA allele B4701", "value": 1, "unit": "%"}, {"measurement": "Cytotoxic CTL response, % vs WT1- leukemia", "setting": "WT1- leukemia", "value": 5, "unit": "%"}, {"measurement": "Cytotoxic CTL response, % vs WT1 peptide loaded autologous APC", "setting": "[3]; HLA allele A0201", "value": 54, "unit": "%"}, {"measurement": "Cytotoxic CTL response, % vs WT1 peptide loaded autologous APC", "setting": "[3]; HLA allele B4701", "value": 54, "unit": "%"}]}
{"smiles": "CC(C)C[C@H](NC(=O)[C@H](CS)NC(=O)CNC(=O)[C@@H]1CCCN1)C(=O)N[C@@H](CCC(N)=O)C(=O)N[C@@H](CCC(N)=O)C(=O)N1CCC[C@H]1C(=O)N[C@@H](CCC(=O)O)C(=O)N[C@@H](CCC(N)=O)C(=O)N[C@@H](CCC(N)=O)C(=O)NCC(=O)O", "note": "[SEQ ID NO: 149] (H-PGCLQQPEQQG-OH; N-terminus and C-terminus assumed)", "values": [{"measurement": "Cytotoxic CTL response, % vs WT1+ allo APC with restricting HLA allele loaded with WT1 peptide", "setting": "[1]; HLA allele DRB10101", "value": 25, "unit": "%"}, {"measurement": "Cytotoxic CTL response, % vs WT1- autologous APC", "setting": "WT1- autologous APC; HLA allele DRB10101", "value": 6, "unit": "%"}, {"measurement": "Cytotoxic CTL response, % vs WT1- allo APC with restricting HLA allele", "setting": "[2]; HLA allele DRB10101", "value": 1, "unit": "%"}, {"measurement": "Cytotoxic CTL response, % vs WT1 peptide loaded autologous APC", "setting": "[3]; HLA allele DRB10101", "value": 54, "unit": "%"}]}
{"smiles": "CC(C)C[C@H](NC(=O)[C@@H](NC(=O)[C@@H]1CCCN1C(=O)[C@H](C)NC(=O)[C@H](Cc1c[nH]c2ccccc12)NC(=O)[C@H](CCC(N)=O)NC(=O)[C@H](C)NC(=O)[C@H](C)NC(=O)CN)C(C)C)C(=O)O", "note": "[SEQ ID NO: 154] (H-GAAQWAPVL-OH; N-terminus and C-terminus assumed)", "values": [{"measurement": "Cytotoxic CTL response, % vs WT1+ allo APC with restricting HLA allele loaded with WT1 peptide", "setting": "[1]; HLA allele B3901", "value": 19, "unit": "%"}, {"measurement": "Cytotoxic CTL response, % vs WT1- autologous APC", "setting": "WT1- autologous APC; HLA allele B3901", "value": 2, "unit": "%"}, {"measurement": "Cytotoxic CTL response, % vs WT1- allo APC with restricting HLA allele", "setting": "[2]; HLA allele B3901", "value": 0, "unit": "%"}, {"measurement": "Cytotoxic CTL response, % vs WT1 peptide loaded autologous APC", "setting": "[3]; HLA allele B3901", "value": 31, "unit": "%"}]}
{"smiles": "C[C@H](N)C(=O)N[C@@H](CS)C(=O)N[C@@H](CCCNC(=N)N)C(=O)N[C@@H](Cc1ccc(O)cc1)C(=O)NCC(=O)N1CCC[C@H]1C(=O)N[C@@H](Cc1ccccc1)C(=O)NCC(=O)N1CCC[C@H]1C(=O)O", "note": "[SEQ ID NO: 159] (H-ACRYGPFGP-OH; N-terminus and C-terminus assumed)", "values": [{"measurement": "Cytotoxic CTL response, % vs WT1+ allo APC with restricting HLA allele loaded with WT1 peptide", "setting": "[1]; HLA allele B4402", "value": 23, "unit": "%"}, {"measurement": "Cytotoxic CTL response, % vs WT1- autologous APC", "setting": "WT1- autologous APC; HLA allele B4402", "value": 8, "unit": "%"}, {"measurement": "Cytotoxic CTL response, % vs WT1- allo APC with restricting HLA allele", "setting": "[2]; HLA allele B4402", "value": 7, "unit": "%"}, {"measurement": "Cytotoxic CTL response, % vs WT1 peptide loaded autologous APC", "setting": "[3]; HLA allele B4402", "value": 46, "unit": "%"}]}
{"smiles": "CSCC[C@H](NC(=O)[C@H](CCCNC(=N)N)NC(=O)[C@H](C)NC(=O)[C@H](CCC(N)=O)NC(=O)CNC(=O)[C@@H](N)CO)C(=O)N[C@@H](Cc1ccccc1)C(=O)N1CCC[C@H]1C(=O)N[C@@H](CC(N)=O)C(=O)O", "note": "[SEQ ID NO: 160] (H-SGQARMFPN-OH; N-terminus and C-terminus assumed)", "values": [{"measurement": "Cytotoxic CTL response, % vs WT1+ allo APC with restricting HLA allele loaded with WT1 peptide", "setting": "[1]; HLA allele B3503", "value": 41, "unit": "%"}, {"measurement": "Cytotoxic CTL response, % vs WT1+ allo APC with restricting HLA allele loaded with WT1 peptide", "setting": "[1]; HLA allele C0401", "value": 41, "unit": "%"}, {"measurement": "Cytotoxic CTL response, % vs WT1- autologous APC", "setting": "WT1- autologous APC; HLA allele B3503", "value": 0, "unit": "%"}, {"measurement": "Cytotoxic CTL response, % vs WT1- autologous APC", "setting": "WT1- autologous APC; HLA allele C0401", "value": 0, "unit": "%"}, {"measurement": "Cytotoxic CTL response, % vs WT1- allo APC with restricting HLA allele", "setting": "[2]; HLA allele B3503", "value": 3, "unit": "%"}, {"measurement": "Cytotoxic CTL response, % vs WT1- allo APC with restricting HLA allele", "setting": "[2]; HLA allele C0401", "value": 3, "unit": "%"}, {"measurement": "Cytotoxic CTL response, % vs WT1 peptide loaded autologous APC", "setting": "[3]; HLA allele B3503", "value": 84, "unit": "%"}, {"measurement": "Cytotoxic CTL response, % vs WT1 peptide loaded autologous APC", "setting": "[3]; HLA allele C0401", "value": 84, "unit": "%"}]}
